Reference: a melting point compilation (Tetko et al.; mined from patent text by program, amines drawn as free bases though some values may be those of a salt)

SMILES | melting point
CCOC(=O)C(N)C=CCP(=O)(O)O (stereo not drawn) | 167 to 168 °C
COc1ccc(CCCN2C=CC=C3C2=Nc2cc(C)ccc2S(=O)(=O)N3C)cc1 | 130 to 131 °C
CC(c1cccc(C(F)(F)F)c1N)S(C)(=O)=O (stereo not drawn) | 153 to 155 °C
CCCCOc1ccc(CNC(=O)c2ccccc2[N+](=O)[O-])cc1 | 101 to 102 °C
O=c1[nH]c2ncc(-c3ccc(O)cc3)nc2n1C1CCCC1 | 299 to 301 °C
C=CCN1C(=O)CC(=O)N(c2ccccc2)c2cc(Cl)ccc21 | 199 to 201 °C
CCCCCCCCCCCCCCCCCCOC(=O)Nc1ccc(NC(=O)NS(=O)(=O)c2ccc(OC)cc2)cc1 | 190 °C
Cc1ccnc(C(=O)n2cc(CC(=O)O)c3cc(C)ccc32)c1 | 220 to 226 °C
N#Cc1ccc(-c2ccc(C(=O)CCC(=O)O)cc2)cc1 | 191 to 193 °C
C=C(C(=O)NCc1ccccc1)c1ccccc1 | 84 to 86 °C
COC(=O)c1ccc(OCCNC(=O)C2Cc3ccccc3N2S(=O)(=O)c2ccc(-c3ccc(F)cc3)cc2)c(C)c1 (stereo not drawn) | 81 to 85 °C
CCOc1nc(NCc2ccco2)nc(Nc2ccc3c(c2)ncn3C)n1 | 105 to 107 °C
O=C1OC(CCOc2ccc3oc4ccccc4c3c2)C(O)=C1O (stereo not drawn) | 191 to 192 °C
CC(C)(C)c1ccc(OCC(O)CCCl)cc1 (stereo not drawn) | 45 to 47 °C
CCCC1=NN(c2ccc(Br)cc2)C(=O)C1=CNc1ccccc1CC | 127 °C
CCCCC(=O)NC(C(=O)OCC)=C(N)Sc1ccccc1 | 115 °C
COC(=O)c1cnc2c3cc(NS(C)(=O)=O)ccc3ncn2c1=O | 293 to 296 °C
COc1ccc(C(C)(O)c2cc(OCc3ccccc3)ccc2OC)cn1 (stereo not drawn) | 53 to 54 °C
CCC1c2ccccc2-c2sc(Br)cc2N1S(=O)(=O)c1ccc(O)cc1 (stereo not drawn) | 183 to 185 °C
CC(=O)NCC1CC1c1c(Cl)ccc2nn(C)cc12 (stereo not drawn) | 149 to 150 °C
COC(=O)C=C(Nc1ccccc1C#N)C(=O)OC | 116 to 118 °C
O=C(NCCO)C1(c2cccc3nn(Cc4cccc(C(F)(F)F)c4)cc23)C=CC=CN1 (stereo not drawn) | 50 to 51 °C
COc1ccc2c(c1)C(=O)c1c-2c(N2CCN(C(=O)CCCl)CC2)nc2ccccc12 | 162 to 163 °C
CCCCOC(=O)c1cc(=O)c2c3c(cc(Cl)c2o1)-c1ccc(S(=O)(=O)O)cc1C(C)(C)O3 | 241 to 243 °C
COCc1ccc(N)c(O)c1 | 108 °C

SMILES | melting point
Nc1c(Cl)cc2c3c(cccc13)C(=O)N(O)C2=O | 354 to 359 °C
CS(=O)(=O)c1ccc(-c2sc(-c3ccccc3)nc2-c2ccc(F)cc2)cc1 | 188 to 189 °C
NC(=O)[C@@H]1[C@H](Nc2c(Br)cnc3[nH]c(-c4ccc(N5CCOCC5)cc4)nc23)[C@H]2C=C[C@@H]1C2 | 283 to 284 °C
CCOC(=O)Cc1c(C)n(Cc2ccccc2)c2ccc(-c3ccccc3)cc12 | 116 to 119 °C
Cc1cc(-c2ccc(C(F)(F)F)cc2)cc(-c2ccnc(-c3cccc(NS(C)(=O)=O)c3)c2)n1 | 196 °C
Nc1c(N=O)c(=O)n(CC2CC2)c(=O)n1CC1CC1 | 228 to 229 °C
COc1ccc2c(c1)C(CCNC(=O)C(F)(F)F)C1(CC2)Cc2ccccc2C1 (stereo not drawn) | 149 to 152 °C
CNc1nc(-c2cccc(NC(=O)c3ccc(S(C)=O)cc3)c2)c2cc(OC)c(OC)cc2n1 (stereo not drawn) | 246 to 248 °C
N#Cc1cn(C2CC2)c2c(F)c(F)c(F)cc2c1=O | 213 to 215 °C
Cn1c2cc(OCC(O)CO)ccc2c2c3c(c(-c4ccccc4Cl)cc21)C(=O)NC3=O (stereo not drawn) | 287 to 290 °C
CN1Cc2c(-c3nc(CN4Cc5ccccc5C4)no3)ncn2-c2ccccc2C1=O | 155 to 160 °C
CC1Nc2ccc(Cl)c3cccc(c23)S1(=O)=O (stereo not drawn) | 150 °C
Nc1cc(S(=O)(=O)c2ccccc2)ccc1Cl | 105 to 107 °C
CNC(=O)N(OC)c1ccc(Oc2ccc3sncc3c2)c(Cl)c1 | 128 °C
CCCN(CCC)CCCC1CCN(CCNC(=O)N2c3ccccc3NC(=O)c3csc(C)c32)CC1 | 114 to 115 °C
O=C1Nc2cc(F)ccc2Nc2ccsc21 | 225 to 230 °C
CON=C(c1noc(C)n1)c1ccccc1COc1ccc(Cl)cc1 | 125 to 126 °C
Cc1c(-c2ccc(O)cc2)sc(C=O)c1-c1ccc(O)c(Cl)c1 | 234 to 236 °C
CCc1csc(-c2ccc(OCCC3CCN(c4ccc(C)nn4)CC3)cc2)n1 | 113 °C
C[C@H]1N(C(=O)OCc2ccccc2)COC1(O)c1ccc(OCc2ccccc2)cc1 (stereo partly drawn) | 82 to 86 °C
Cc1cc(C2=CC(=O)c3cccc(O)c3C2=O)c(C)[nH]1 | 195 to 196 °C
C#CC1(Oc2ccc(F)cc2[N+](=O)[O-])CCN(C(=O)OCC)CC1 | 56 to 68 °C
O=C(NCCCn1ncnn1)c1ccccc1NS(=O)(=O)c1cccc(C(F)(F)F)c1 | 67 to 69 °C
Cc1ccccc1SCc1c(C(C)C)nc(C(C)C)c(CO)c1-c1ccc(F)cc1 | 140 to 141 °C
Cc1nc(Br)c(Br)n1Cc1cc2c(cc1Cl)OCO2 | 185 °C

SMILES | melting point
C=CCNc1nc(NCC)c2scc(C)c2n1 | 96 to 97 °C
CCOC(=O)Cc1c(C)n(CCCc2ccccc2)c2cccc(OCc3csc(-c4ccccc4)n3)c12 | 90 to 94 °C
O=S(=O)(CC(F)(F)F)Nc1ccc(N2CCN(c3ccc(OCC(O)(Cn4cncn4)c4ccc(Cl)cc4Cl)cc3)CC2)cc1 (stereo not drawn) | 74 to 75 °C
NCCc1coc2ccc3c(c12)CCCO3 | 110 °C
CCc1nc2c(N)nc3c(c2n1CCOCCS(C)(=O)=O)CCCC3 | 146 to 148 °C
CCOCC(=O)C(=CN(CC)CC)c1cccc(C(F)(F)F)c1 | 131 to 133 °C
CC1(Cc2ccc(O)cc2)OCCO1 | 61 to 64 °C
CCCCc1ccccc1C1C(C(=O)OCC)=C(CCC)Nc2[nH]ncc21 (stereo not drawn) | 175 °C
N#Cc1ccc(Cn2cncn2)cc1-c1ccc(OS(N)(=O)=O)c(Cl)c1 | 133 to 136 °C
N=C1c2c(F)cccc2S(=O)(=O)N1CC1CC1 | 90 to 93 °C
Cc1cccc(NC(=O)NC2CN(C(=O)NC3CCCCC3)c3ccccc3N(CC(=O)c3ccccc3C)C2=O)c1 (stereo not drawn) | 117 to 119 °C
COc1ccc(CC(=O)O)cc1C12CC3CC(CC(C3)C1)C2 | 78 to 79 °C
CNC(=O)Nc1cc(OC)c(-c2ccc(C[C@H](NC(=O)c3c(Cl)cccc3Cl)C(=O)O)cc2)c(OC)c1 | 206 to 207 °C
O=C1Nc2ccccc2C2(c3ccccc3)OCCN12 (stereo not drawn) | 194 °C
CCC1C(=O)C2C3CCC(C(C)CCC(=O)O)C3(C)CCC2C2(C)CCC(O)CC12 (stereo not drawn) | 185 to 188 °C
Nc1ccc(OC(F)(F)C(F)F)cc1[N+](=O)[O-] | 83.9 to 84.4 °C
O=C=Nc1ccc(C(=S)OC2CCCCC2)c(Cl)c1 | 60 to 65 °C
Fc1ccc(-c2ccc(C3OCCO3)cc2)cc1F | 89 to 91 °C
COc1ccc(C2(C#Cc3cc(C(=O)O)cs3)CCC(=O)CC2)cc1OC1CCCC1 | 75 to 76 °C
c1ccc2c(c1)CCCC2N1CCCNCC1 (stereo not drawn) | 107 to 109 °C
c1ccc(Oc2cccc(Nc3nnc(Cc4ccncc4)c4ccccc34)c2)cc1 | 186 to 189 °C
O=C1c2ccc(-c3cccnc3)cc2CC1Cl (stereo not drawn) | 103 to 105 °C
Cc1ccc(S(=O)(=O)Nc2ccccc2)cc1 | 96 to 98 °C
Cc1c(C(F)(F)F)cc([N+](=O)[O-])c(Cl)c1[N+](=O)[O-] | 81 to 82 °C
O=c1[nH]c(-c2ccccn2)nc(C(F)(F)F)c1I | 186 to 187 °C

SMILES | melting point
N#CN=C(Nc1ccc([N+](=O)[O-])cc1O)Nc1ccccc1Cl | 163 to 164 °C
CCOC(=O)c1cn(-c2nnc(C)s2)c2nc(N3CC[C@H](N)C3)c(F)cc2c1=O | 265 to 268 °C
COC(=O)c1cc(C(C)(C)C)c(O[Si](C)(C)Oc2c(C(C)(C)C)cc(C(=O)OC)cc2C(C)(C)C)c(C(C)(C)C)c1 | 197 to 198 °C
Cc1ccc(-c2c(C(=O)NCc3cc(C(F)(F)F)cc(C(F)(F)F)c3)n(CCCCCO)c(=O)c3ncccc23)cc1 | 136 to 137 °C
Cc1nn(C)c(C(=O)N(C)C)c1[N+](=O)[O-] | 57 to 59.5 °C
O=c1[nH]c(COc2ccc(Cl)cc2)nc2nccnc12 | 267 to 269 °C
CN1CC2CC2(C(=O)O)C1 (stereo not drawn) | 193 to 195 °C
O=c1[nH]c2c(c3nc(-c4ccccc4Cl)nn13)CN(Cc1ccccc1)CC2 | 295 to 296 °C
Cc1nc(C#N)ccc1OC1SCC(O)C(O)C1O (stereo not drawn) | 193 to 195 °C
CC1(C(=O)Nc2ccc(-n3nc(C(F)(F)F)cc3C(F)(F)F)cc2)CC1(Cl)Cl (stereo not drawn) | 143 to 145 °C
Cc1cnc2ccc(N)cc2n1 | 170 to 173 °C
OCC1Cc2sccc2CN1C(=S)Nc1cccc2cnccc12 (racemic) | 185 °C
CC1N=C(c2ccccc2)c2cc(Cl)ccc2NC1=S (stereo not drawn) | 250 °C
COC(=O)CCNc1ccccc1CNC(=O)C1Cc2ccccc2N1S(=O)(=O)c1ccc(-c2ccc(F)cc2OC)cc1 (stereo not drawn) | 78 to 80 °C
O=C(NC(CC12CC3CC(CC(C3)C1)C2)Nc1c(Nc2cccnc2)c(=O)c1=O)c1ccccc1Cl (stereo not drawn) | 224 to 225 °C
Cc1nc2c(C#N)cnn2c(Cl)c1CCCl | 143 to 145 °C
CC(=O)Nc1cccc(/C=C/C(=O)N2CC(CCl)c3c2cc(N)c2ccccc32)c1 (stereo not drawn) | > 250 °C
CC(C)(C)OC(=O)Nc1ccc(C#Cc2ccc(F)cc2)cc1NC(=O)CC(=O)c1cccc(-n2cncn2)c1 | 131 to 139 °C
CC(C)(COc1ccc(Cl)cc1)C(=O)COc1ccc(Cl)cc1 | 76 to 77 °C
CCC(Oc1ccc2nc(NC(=O)NCCN3CCOCC3)sc2c1)c1c(Cl)cccc1Cl (stereo not drawn) | 200 °C
COC(=O)c1c(C(=O)OC)c(-c2ccc(Cl)cc2)n2c1Cc1ccccc1C2 | 164 to 166 °C
O=c1c2ccccc2cc(-c2ccc(F)cc2)n1CCF | 119 to 121 °C
COc1ccc(C2(CCO)C=CC=CN2)cc1OC1CCCC1 (stereo not drawn) | 94 to 96 °C
